From patent publication US11708500B2, “Solvent compounds for use as coalescents” (TBF ENVIRONMENTAL TECHNOLOGY INC., priority 2017, dated 2023)
Like-named read-outs stand apart in the source and are kept apart here.

Key:
[1] = XTR5 vs Texanol paint in Raycryl 1526 acrylic emulsion polymer; conditions: Raycryl 1526 paint
Text: (§1) Bis(1-butoxypropan-2-yl) carbonate (TreviSol, XTR5) was used as a direct replacement for other typical coalescents, such as, Texanol™, as follows.

[2] = XTR5 vs Texanol coating in Raycryl 1001 acrylic emulsion polymer; conditions: Raycryl 1001 coating
Text: as §1

[3] = XTR5 vs Texanol coating in EPS 2708 acrylic emulsion polymer; conditions: EPS 2708 coating
Text: as §1

[4] = Physical/chemical properties of XTR5

SMILES | Specific Gravity [1] [g/cm3] | VOC (Without Water) [1] [g/L] | Viscosity [1] [KU] | Volume Solid % [1] [%] | Weight Solid % [1] [%] | Specific Gravity [2] [g/cm3] | VOC (Without Water) [2] [g/L] | Viscosity [2] [KU] | Volume Solid % [2] [%] | Weight Solid % [2] [%] | Specific Gravity [3] [g/cm3] | VOC (Without Water) [3] [g/L] | Viscosity [3] [KU] | Volume Solid % [3] [%] | Weight Solid % [3] [%] | further results
CC(C)C(=O)OCC(C)(C)C(O)C(C)C (centres unmarked) [Texanol, 2-methyl-, 3-hydroxy-2,2,4-trimethylpentyl ester, reference compound] | 1.25 | 95.0 | 90 | 40.91 | 51.91 | 1.32 | 54.6 | 95 | 41.1 | 54.6 | 1.33 | 103.3 | 95 | 41.0 | 54.5 | 
CCCCOCC(C)OC(=O)OC(C)COCCCC (centres unmarked) [XTR5, bis(1-butoxypropan-2-yl) carbonate] | 1.25 | 45.0 | 90 | 40.91 | 51.91 | 1.32 | 1.5 | 95 | 41.1 | 54.6 | 1.33 | 59.6 | 95 | 41.0 | 54.5 | Clarity [4]: Clear; Colour (Alpha, max) [4]: 10; Density [4]: (7.94 lb/gal); Evaporation Rate [4]: Slow and Close to Texanol; Partial Coefficient (Range) [4]: 0.7-2.0; Texanol Solubility [4]: Soluble; VOC [4]: 0 g/L; Volatility (%) [4]: 100%; Water Solubility [4]: Not Soluble; Specific Gravity ([4]; @15.5°): 0.956; Density ([4]; @ 20° C.): 0.951 g/mL; Solubility in H2O ([4]; @ 25° C.): Insoluble; Vapour Pressure ([4]; @ 25° C.): 0.005 mm Hg; Viscosity ([4]; @ 25° C.): 0.58 cP; Vapour Density (mm Hg Air = 1) ([4]; Air = 1): 0.95; TGA Weight Loss ([4]; Ambient 115-240° C.): 97.94%; Evaporation Rate (n-Butyl Acetate = 1) ([4]; n-Butyl Acetate = 1): 0.0004
